From the supplement of paper PMC11061612

Legend:
Experiment in all cases: Bliss excess, mean over the matrix (fraction); higher = more synergy
[1] = tested on: SAS (Oral Cavity Carcinoma)
Procedure, shortened: (§1)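 Bliss excess equals the observed combination effect minus the expected value EA + EB − EA·EB, where EA and EB are the effects of each agent alone. Combination Emax is the second-highest inhibition within the matrix. Inhibition was scaled from CellTiter-Glo 2.0 luminescence, with 0 set by vehicle wells and 1 by blank wells, after 72 hours of two-drug dosing of cells plated in 1536-well plates.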

[2] = tested on: NCI-H524 (Small Cell Lung Carcinoma)
Procedure, shortened: as §1

[3] = tested on: SNU-449 (Hepatocellular Carcinoma)
Procedure, shortened: as §1

[4] = tested on: TGBC1TKB (Biliary Tract Carcinoma)
Procedure, shortened: as §1

[5] = tested on: Hs-746T (Gastric Carcinoma)
Procedure, shortened: as §1

[6] = tested on: OE21 (Esophageal Squamous Cell Carcinoma)
Procedure, shortened: as §1

[7] = tested on: BE2-M17 (Neuroblastoma)
Procedure, shortened: as §1

[8] = tested on: MPP-89 (Mesothelioma)
Procedure, shortened: as §1

[9] = tested on: WSU-NHL (B-Cell Non-Hodgkin's Lymphoma)
Procedure, shortened: as §1

[10] = tested on: LS-123 (Colorectal Carcinoma)
Procedure, shortened: as §1

| Compound | Bliss excess [1] | Bliss excess [2] | Bliss excess [3] | Bliss excess [4] | Bliss excess [5] | Bliss excess [6] | Bliss excess [7] | Bliss excess [8] | Bliss excess [9] | Bliss excess [10] |
| --- | --- | --- | --- | --- | --- | --- | --- | --- | --- | --- |
| CN(CCO)CC[C@H](CSc1ccccc1)Nc1ccc(S(=O)(=O)NC(=O)c2ccc(N3CCC([C@@H](O)c4ccccc4-c4ccc(Cl)cc4)CC3)cc2)cc1S(=O)(=O)C(F)(F)F [AZD4320] + C[C@@H](Nc1cc(F)cc(F)c1)c1cc(C(=O)N(C)C)cc2c(=O)cc(N3CCOCC3)oc12 [AZD8186] (first compound max 1 µM, 7x7, partner max 3 µM) | 0.0033 | 0.0121 | 0.0093 | 0.0019 | -0.0354 | 0.0243 | 0.0115 | 0.0212 | -0.037 | – |
| O=C(c1cc(Cc2n[nH]c(=O)c3ccccc23)ccc1F)N1CCN(C(=O)C2CC2)CC1 [Olaparib] + Cc1c2c(nn1C)CSCc1cc(n(C)n1)CSc1cc(c3ccccc3c1)OCCCc1c(C(=O)O)n(C)c3c-2c(Cl)ccc13 [AZD5991] (first compound max 10 µM, 7x7, partner max 1 µM) | -0.0344 | 0.0147 | -0.045 | -0.0334 | – | – | – | -0.0586 | 0.0217 | -0.0658 |
| CN(CCO)CC[C@H](CSc1ccccc1)Nc1ccc(S(=O)(=O)NC(=O)c2ccc(N3CCC([C@@H](O)c4ccccc4-c4ccc(Cl)cc4)CC3)cc2)cc1S(=O)(=O)C(F)(F)F [AZD4320] + Cn1cnc2c(F)c(Nc3ccc(Br)cc3Cl)c(C(=O)NOCCO)cc21 [Selumetinib] (first compound max 1 µM, 7x7, partner max 3 µM) | 0.043 | -0.0061 | -0.0537 | -0.012 | 0.0402 | 0.0225 | 0.0929 | -0.0056 | -0.0491 | – |
| Cc1nc(-c2cn3c(n2)-c2ccc(-c4cnn(C(C)(C)C(N)=O)c4)cc2OCC3)n(C(C)C)n1 [Taselisib] + O=C(Nc1ccc2[nH]nc(-c3ccncc3)c2c1)[C@@H]1CCN(CC(=O)N2CCN(c3ccc(-c4ncccn4)cc3)CC2)C1 [SCH772984] (first compound max 10 µM, 7x7, partner max 5 µM) | 0.0999 | 0.0464 | 0.0076 | 0.0043 | – | – | – | 0.0373 | 0.037 | 0.0028 |
| C[C@@H](Oc1cc(-c2cnn(C3CCNCC3)c2)cnc1N)c1c(Cl)ccc(F)c1Cl [Crizotinib] + Cn1cnc2c(F)c(Nc3ccc(Br)cc3Cl)c(C(=O)NOCCO)cc21 [Selumetinib] (first compound max 10 µM, 7x7, partner max 10 µM) | -0.0073 | -0.0449 | -0.0665 | -0.0534 | – | – | – | -0.0078 | -0.0382 | -0.0378 |
| C=CCn1c(=O)c2cnc(Nc3ccc(N4CCN(C)CC4)cc3)nc2n1-c1cccc(C(C)(C)O)n1 [AZD1775] + CCc1c2c(nc3ccc(O)cc13)-c1cc3c(c(=O)n1C2)COC(=O)[C@]3(O)CC [SN-38] (first compound max 1 µM, partner max 0.3 µM) | 0.0334 | -0.0355 | -0.0298 | -0.0491 | – | – | – | 0.0163 | -0.0306 | -0.0581 |
| O=C(c1cc(Cc2n[nH]c(=O)c3ccccc23)ccc1F)N1CCN(C(=O)C2CC2)CC1 [Olaparib] + CN(CC[C@H](CSC1=CC=CC=C1)NC2=C(C=C(C=C2)S(=O)(=O)NC(=O)C3=CC=C(C=C3)N4CCC(CC4)[C@H](C5=CC=CC=C5C6=CC=C(C=C6)Cl)O)S(=O)(=O)C(F)(F)F)CCO [AZD4320] (first compound max 10 µM, 7x7, partner max 1 µM) | -0.0318 | 0.0085 | -0.0422 | -0.049 | – | – | – | -0.0662 | 0.0345 | -0.0647 |
| C[C@@H](Nc1cc(F)cc(F)c1)c1cc(C(=O)N(C)C)cc2c(=O)cc(N3CCOCC3)oc12 [AZD8186] + CC(=O)c1c(C)c2cnc(Nc3ccc(N4CCNCC4)cn3)nc2n(C2CCCC2)c1=O [Palbociclib] (first compound max 10 µM, 7x7, partner max 10 µM) | -0.0006 | -0.0531 | 0.0373 | 0.0239 | – | – | – | -0.0317 | -0.0144 | 0.0701 |
| CS(=O)(=O)CCNCc1ccc(-c2ccc3ncnc(Nc4ccc(OCc5cccc(F)c5)c(Cl)c4)c3c2)o1 [Lapatinib] + NC1(c2ccc(-c3nc4ccn5c(=O)[nH]nc5c4cc3-c3ccccc3)cc2)CCC1 [MK-2206] (first compound max 10 µM, 7x7, partner max 10 µM) | 0.0044 | 0.0223 | 0.0446 | 0.0079 | – | – | – | -0.0391 | -0.0237 | 0.0101 |
| C[C@@H]1COCCN1c1cc(C2([S@](C)(=N)=O)CC2)nc(-c2ccnc3[nH]ccc23)n1 [AZD6738] + C1CC(C1)(C(=O)[O-])C(=O)[O-].N.N.[Pt+2] [Carboplatin] (first compound max 10 µM, 7x7, partner max 10 µM) | -0.0459 | -0.0512 | -0.0341 | -0.0375 | – | – | – | -0.035 | -0.054 | -0.0239 |
| CN(CCO)CC[C@H](CSc1ccccc1)Nc1ccc(S(=O)(=O)NC(=O)c2ccc(N3CCC([C@@H](O)c4ccccc4-c4ccc(Cl)cc4)CC3)cc2)cc1S(=O)(=O)C(F)(F)F [AZD4320] + CN(C)CCCOc1ccc(-c2ccc3ncc4c(c3c2)n(C2CCOCC2)c(=O)n4C)cn1 [AZD0156] (first compound max 1 µM, 7x7, partner max 1 µM) | -0.0472 | 0.0124 | -0.0828 | -0.022 | 0.0037 | -0.0207 | -0.0171 | -0.0339 | -0.0238 | – |
| Cc1c2c(nn1C)CSCc1cc(n(C)n1)CSc1cc(c3ccccc3c1)OCCCc1c(C(=O)O)n(C)c3c-2c(Cl)ccc13 [AZD5991] + Nc1ccn([C@@H]2O[C@H](CO)[C@@H](O)C2(F)F)c(=O)n1 [Gemcitabine] (first compound max 1 µM, 7x7, partner max 0.3 µM) | -0.0223 | -0.0212 | -0.0021 | 0.0006 | – | – | – | -0.0354 | -0.0514 | -0.0176 |
| CN(CCO)CC[C@H](CSc1ccccc1)Nc1ccc(S(=O)(=O)NC(=O)c2ccc(N3CCC([C@@H](O)c4ccccc4-c4ccc(Cl)cc4)CC3)cc2)cc1S(=O)(=O)C(F)(F)F [AZD4320] + CS(=O)(=O)CCNCc1ccc(-c2ccc3ncnc(Nc4ccc(OCc5cccc(F)c5)c(Cl)c4)c3c2)o1 [Lapatinib] (first compound max 1 µM, 7x7, partner max 10 µM) | 0.0214 | 0.0798 | 0.021 | 0.0019 | – | – | – | 0.0479 | 0.0183 | – |
| C[C@@H](Oc1cc(-c2cnn(C3CCNCC3)c2)cnc1N)c1c(Cl)ccc(F)c1Cl [Crizotinib] + CC1=C(C(=CC=C1)Cl)NC(=O)C2=CN=C(S2)NC3=CC(=NC(=N3)C)N4CCN(CC4)CCO [Dasatinib] (first compound max 10 µM, 7x7, partner max 2 µM) | -0.0059 | -0.0264 | 0.0569 | 0.0435 | – | – | – | 0.0389 | 0.0202 | 0.0166 |
| CN(CCO)CC[C@H](CSc1ccccc1)Nc1ccc(S(=O)(=O)NC(=O)c2ccc(N3CCC([C@@H](O)c4ccccc4-c4ccc(Cl)cc4)CC3)cc2)cc1S(=O)(=O)C(F)(F)F [AZD4320] + C=CCn1c(=O)c2cnc(Nc3ccc(N4CCN(C)CC4)cc3)nc2n1-c1cccc(C(C)(C)O)n1 [AZD1775] (first compound max 1 µM, partner max 1 µM) | 0.05 | 0.055 | -0.0744 | 0.0352 | -0.0054 | – | 0.0199 | 0.0351 | -0.0242 | – |
| CS(=O)(=O)CCNCc1ccc(-c2ccc3ncnc(Nc4ccc(OCc5cccc(F)c5)c(Cl)c4)c3c2)o1 [Lapatinib] + Cn1cnc2c(F)c(Nc3ccc(Br)cc3Cl)c(C(=O)NOCCO)cc21 [Selumetinib] (first compound max 10 µM, 7x7, partner max 10 µM) | -0.049 | -0.0534 | -0.0601 | 0.034 | – | – | – | -0.0065 | -0.0093 | 0.0002 |
| CC1(C)CCC(CN2CCN(c3ccc(C(=O)NS(=O)(=O)c4ccc(NCC5CCOCC5)c([N+](=O)[O-])c4)c(Oc4cnc5[nH]ccc5c4)c3)CC2)=C(c2ccc(Cl)cc2)C1 [Venetoclax] + CS(=O)(=O)CCNCc1ccc(-c2ccc3ncnc(Nc4ccc(OCc5cccc(F)c5)c(Cl)c4)c3c2)o1 [Lapatinib] (first compound max 1 µM, 7x7, partner max 10 µM) | -0.059 | -0.0393 | -0.0572 | -0.0308 | – | – | – | -0.0532 | 0.0482 | -0.0595 |
| O=C(c1cc(Cc2n[nH]c(=O)c3ccccc23)ccc1F)N1CCN(C(=O)C2CC2)CC1 [Olaparib] + COc1nnc2ccc(N3CCC(c4ccc(OCCN5CCN(C)C(=O)[C@H]5C)cc4)CC3)nn12 [AZD5153] (first compound max 10 µM, 7x7, partner max 1 µM) | -0.0771 | -0.0532 | -0.0587 | -0.0322 | – | – | – | -0.0489 | -0.06 | -0.0084 |
| Cc1c2c(nn1C)CSCc1cc(n(C)n1)CSc1cc(c3ccccc3c1)OCCCc1c(C(=O)O)n(C)c3c-2c(Cl)ccc13 [AZD5991] + CS(=O)(=O)CCNCc1ccc(-c2ccc3ncnc(Nc4ccc(OCc5cccc(F)c5)c(Cl)c4)c3c2)o1 [Lapatinib] (first compound max 1 µM, 7x7, partner max 10 µM) | -0.0208 | -0.0908 | 0.0212 | -0.0463 | – | – | – | -0.0088 | -0.0347 | -0.0106 |
| Cc1c2c(nn1C)CSCc1cc(n(C)n1)CSc1cc(c3ccccc3c1)OCCCc1c(C(=O)O)n(C)c3c-2c(Cl)ccc13 [AZD5991] + CC(=O)O[C@H]1C(=O)[C@@]2(C)[C@H]([C@H](OC(=O)c3ccccc3)[C@]3(O)C[C@H](OC(=O)[C@H](O)[C@@H](NC(=O)c4ccccc4)c4ccccc4)C(C)=C1C3(C)C)[C@]1(OC(C)=O)CO[C@@H]1C[C@@H]2O [Paclitaxel] (first compound max 1 µM, 7x7, partner max 3 µM) | 0.0067 | -0.0264 | -0.0404 | -0.0892 | – | – | – | -0.0347 | -0.0565 | -0.0691 |
